Test results published in US11596150B2, “Long chain glycolipids useful to avoid perishing or microbial contamination of materials” (IMD NATURAL SOLUTIONS GMBH, priority 2011, dated 2023).
≈ marks a conversion by molar mass, not a printed value. Where two headings read alike, the source gives them in different places.

Columns and labels:
[1] = system: Mucor plumbeus (MUCL49355); assay: MIC determination in microtiter plates (non-pathogenic microorganisms); assay type: cell-based
[2] = system: Aspergillus fumigatus (ATCC 1028); assay: microbe, parasite or virus in culture; assay type: cell-based
[3] = system: Staphylococcus aureus (ATCC 6538P); assay: microbe, parasite or virus in culture; assay type: cell-based; settings: ATCC6538P, Mueller-Hinton Broth, 1% DMSO, 20 hours at 36° C., read-out: MIC S. aureus
[4] = system: Candida albicans; assay: MIC / growth inhibition after 48 h (Example 9); settings: ATCC10231, 48 h, read-out: MIC values after 48 h
[5] = system: Listeria welshimeri (DSM15452); assay: MIC determination in microtiter plates (non-pathogenic microorganisms); assay type: cell-based; settings: 48 h, read-out: MIC values after 48 h
Description: Various nonpathogenic bacteria, yeasts, and filamentous fungi were obtained from public culture collections and maintained as recommended in the catalogues and protocols of the respective institutions. Saccharomyces cerevisiae strain HT10 and Mucor plumbeus were originally taken from the culture collection of InterMed Discovery GmbH but deposited with MUCL as reference strains for antimicrobial susceptibility testing. These strains were maintained under liquid nitrogen and, prior to the screening, on YMG agar. Prior to the screening the yeast and bacterial strains were grown over night on SDB (medium 1), except for Bacillus subtilis, which was grown on YMG agar (medium 2) for 1 week to prepare spore suspensions. Likewise, the filamentous fungi were pre-incubated on YMG agar for 2-3 weeks to create inoculum for spore suspensions. […] For all experiments, freshly prepared spore suspensions were used. The initial concentrations for the bioassays were adjusted to 1×10^5 CFU (i.e. cells or spores, respectively) per ml. […] To adjust the initial titer prior to the bioassays, the CFU per ml was determined under the microscope using a counting chamber type “Brand Neubauer improved”; BRAND GmbH & Co KG, Wertheim, Germany). This microscopic control also served as means for assessment of the viability of the cells. […]

[6] = system: Corynebacterium variabile (DSM20132); assay: as above; assay type: cell-based; settings: 48 h, read-out: MIC values after 48 h
[7] = system: Dekkera naardenensis (DSM70743); assay: as above; assay type: cell-based; settings: Brettanomyces naardenensis, 48 h, read-out: MIC values after 48 h
[8] = system: Listeria monocytogenes (ATCC19111); assay: MIC after 48 h (Example 9); settings: ATCC19111, 48 h, read-out: MIC values after 48 h
[9] = system: Aspergillus niger (ATCC 16404); assay: MIC determination in microtiter plates (non-pathogenic microorganisms); assay type: cell-based; settings: Aspergillus niger (ATCC16404); 48 h; read-out: MIC values after 48 h
[10] = system: Bacillus subtilis (ATCC6633); assay: as above; assay type: cell-based; settings: 48 h, read-out: MIC values after 48 h
[11] = system: Bacillus cereus; assay: MIC / growth inhibition after 48 h (Example 9); settings: ATCC11778, 48 h, read-out: MIC values after 48 h
[12] = system: Enterococcus faecalis (ATCC19433); assay: MIC after 48 h (Example 9); settings: ATCC19433, 48 h, read-out: MIC values after 48 h
[13] = system: Zygosaccharomyces bisporus (DSM70415); assay: MIC determination in microtiter plates (non-pathogenic microorganisms); assay type: cell-based; settings: 48 h, read-out: MIC values after 48 h
[14] = system: Zygosaccharomyces florentinus (DSM70506); assay: as above; assay type: cell-based; settings: Zygotorulaspora florentina, 48 h, read-out: MIC values after 48 h
[15] = system: Zygosaccharomyces bailii (DSM70492); assay: as above; assay type: cell-based; settings: 48 h, read-out: MIC values after 48 h
[16] = system: Byssochlamys fulva (DSM62097); assay: as above; assay type: cell-based; settings: Paecilomyces fulvus, 48 h, read-out: MIC values after 48 h
[17] = system: Clostridium perfringens (ATCC 13124); assay: microbe, parasite or virus in culture; assay type: cell-based; settings: ATCC13124, 48 h
[18] = system: Dekkera bruxellensis (DSM70726); assay: MIC determination in microtiter plates (non-pathogenic microorganisms); assay type: cell-based; settings: Brettanomyces bruxellensis, 48 h, read-out: MIC values after 48 h
[19] = system: Talaromyces luteus (CBS348.51); assay: MIC after 48 h (Example 9); assay type: cell-based; settings: Ascospirella lutea
[20] = system: Zygosaccharomyces rouxii (NCYC381); assay: MIC determination in microtiter plates (non-pathogenic microorganisms); assay type: cell-based; settings: 48 h, read-out: MIC values after 48 h
[21] = system: Clostridium sporogenes; assay: MIC / growth inhibition after 48 h (Example 9); settings: ATCC3584, 48 h, read-out: MIC values after 48 h
[22] = system: Pyricularia oryzae (DSM62938); assay: microbe, parasite or virus in culture; assay type: cell-based; settings: DSM62938, 48 h, read-out: MIC values after 48 h
[23] = system: Lactobacillus plantarum (DSM 12028); assay: MIC determination in microtiter plates (non-pathogenic microorganisms); assay type: cell-based; settings: Lactiplantibacillus plantarum; Lactobacillus plantarum (DSM12028); 48 h; read-out: MIC values after 48 h
[24] = system: Saccharomyces cerevisiae (HT10); assay: as above; assay type: cell-based; settings: 48 h, read-out: MIC values after 48 h
[25] = system: Propionibacterium acnes (ATCC6919); assay: MIC after 48 h (Example 9); assay type: cell-based; settings: Cutibacterium acnes
[26] = M. plumbeus (MUCL49355), SDB medium, day not given (Table 19)
[27] = M. plumbeus (MUCL49355), SDB medium, day not printed (first line of Table 19)
[28] = Aspergillus fumigatus (ATCC1028), 48 h, read-out: MIC values after 48 h
[29] = Aspergillus fumigatus, ATCC1028, 72 h, Potato Dextrose Broth, 1% DMSO, 3 days at 28° C., read-out: MIC A. fumigatus
[30] = read-out: MIC values after 48 h
[31] = Mucor plumbeus (MUCL49355), 48 h, read-out: MIC values after 48 h

| SMILES | MIC [1, 26] | MIC [1, 27] | MIC [2, 28] | MIC [2, 29] | MIC [3] | MIC [6] | MIC [7] | MIC [9] | MIC [10] | MIC [13] | MIC [14] | MIC [15] | MIC [16] | MIC [18] | MIC [19] | MIC [20] | MIC [1, 31] | MIC [22] | MIC [23] | MIC [24] | also measured |
| --- | --- | --- | --- | --- | --- | --- | --- | --- | --- | --- | --- | --- | --- | --- | --- | --- | --- | --- | --- | --- | --- |
| CCCCCCC(CCCC(O)CCCCCCCCCCCCCC(O)C(=O)O)OC1OCC(O)C(O)C1OC1OCC(OC(C)=O)C(O)C1OC1OC(COC(C)=O)C(O)C(O)C1O (stereo not drawn) [[10], Antibiotic F 19848A] | 50 | 12.5 |  |  |  |  |  |  |  |  |  |  |  |  |  |  |  |  |  |  |  |
| CCCCC(CCCC(O)C(O)CCCCCCCCCCCCCCC(O)C(=O)O)OC1OCC(O)C(O)C1OC1OCC(O)C(O)C1OC1OC(COC(=O)CC(C)C)C(O)C(O)C1O (stereo not drawn) [[12]] | 100 | 50 | 20 µg/mL (≈ 20.6 µM) | 20 µg/mL (≈ 20.6 µM) | 200 µg/mL (≈ 206 µM) | < 0.8 µg/mL | 6.3 µg/mL (≈ 6.49 µM) | 6.3 µg/mL (≈ 6.49 µM) | 1.6 µg/mL (≈ 1.65 µM) | 12.5 µg/mL (≈ 12.9 µM) | 6.3 µg/mL (≈ 6.49 µM) | 6.3 µg/mL (≈ 6.49 µM) | 6.3 µg/mL (≈ 6.49 µM) | 6.3 µg/mL (≈ 6.49 µM) | 25 µg/mL (≈ 25.7 µM) | 6.3 µg/mL (≈ 6.49 µM) | 6.3 µg/mL (≈ 6.49 µM) | 25 µg/mL (≈ 25.7 µM) | 25 µg/mL (≈ 25.7 µM) | 6.3 µg/mL (≈ 6.49 µM) | MIC [4]: 25 µg/mL (≈ 25.7 µM); MIC [5]: 25 µg/mL (≈ 25.7 µM); MIC [8]: 50 µg/mL (≈ 51.5 µM); MIC [11]: 12.5 µg/mL (≈ 12.9 µM); MIC [12]: 50 µg/mL (≈ 51.5 µM); MIC ([17]; read-out: MIC C. perfringens): 60 µg/mL (≈ 61.8 µM); MIC [17, 30]: 60 µg/mL (≈ 61.8 µM); MIC [21]: 50 µg/mL (≈ 51.5 µM) |
| CCCCC(CCCC(O)C(O)CCCCCCCCCCCCCCC(O)C(=O)O)OC1OCC(O)C(O)C1OC1OCC(OC(C)=O)C(O)C1OC1OC(COC(=O)CC(C)C)C(O)C(O)C1O (stereo not drawn) [[1], 2,17,18-trihydroxy-hexacosanoic acid 22-O-[6-isovaleroyl-hexapyranosyl-(1→2)-5-acetyl-pentapyranosyl-(1→2)-penta-pyranosid]-] | 50 | 25 | 20 µg/mL (≈ 19.7 µM) | 20 µg/mL (≈ 19.7 µM) | 200 µg/mL (≈ 197 µM) | 1.6 µg/mL (≈ 1.58 µM) | 6.3 µg/mL (≈ 6.22 µM) | 3.1 µg/mL (≈ 3.06 µM) | 3.1 µg/mL (≈ 3.06 µM) | 12.5 µg/mL (≈ 12.3 µM) | 6.3 µg/mL (≈ 6.22 µM) | 6.3 µg/mL (≈ 6.22 µM) | 3.1 µg/mL (≈ 3.06 µM) | 6.3 µg/mL (≈ 6.22 µM) | 12.5 µg/mL (≈ 12.3 µM) | 6.3 µg/mL (≈ 6.22 µM) | 6.3 µg/mL (≈ 6.22 µM) | 6 µg/mL (≈ 5.92 µM) | 25 µg/mL (≈ 24.7 µM) | 6.3 µg/mL (≈ 6.22 µM) | MIC [4]: 30 µg/mL (≈ 29.6 µM); MIC ([17]; read-out: MIC C. perfringens): 60 µg/mL (≈ 59.2 µM); MIC [17, 30]: 60 µg/mL (≈ 59.2 µM); MIC [25]: 100 µg/mL (≈ 98.7 µM) |
| O=C(O)c1ccccc1 [benzoic acid, reference compound] |  |  |  |  |  |  |  |  |  |  |  |  |  |  |  |  |  |  |  |  | MIC ([1]; M. plumbeus (MUCL49355), SDB medium, day 2): 1000; MIC ([1]; M. plumbeus (MUCL49355), SDB medium, day 7): 1000; MIC ([1]; M. plumbeus (MUCL49355), SDB medium, day 16): >1000; MIC ([1]; M. plumbeus (MUCL49355), SDB medium, day 28): >1000 |
| CCCCC(CCCC(O)C(O)CCCCCCCCCCCCCCC(O)C(=O)O)OC1OCC(O)C(O)C1OC1OCC(O)C(O)C1OC1OC(COC(=O)CC(C)C)C(OC(C)=O)C(O)C1O (stereo not drawn) [[13]] | 25 | 12.5 |  |  |  | 1.6 µg/mL (≈ 1.58 µM) | 12.5 µg/mL (≈ 12.3 µM) | 12.5 µg/mL (≈ 12.3 µM) | 3.1 µg/mL (≈ 3.06 µM) | 25 µg/mL (≈ 24.7 µM) | 12.5 µg/mL (≈ 12.3 µM) | 6.3 µg/mL (≈ 6.22 µM) | 3.1 µg/mL (≈ 3.06 µM) | 6.3 µg/mL (≈ 6.22 µM) | 25 µg/mL (≈ 24.7 µM) | 12.5 µg/mL (≈ 12.3 µM) | 12.5 µg/mL (≈ 12.3 µM) | 6 µg/mL (≈ 5.92 µM) | 25 µg/mL (≈ 24.7 µM) | 12.5 µg/mL (≈ 12.3 µM) |  |
